The test system of assay [1] is K562 (human chronic myelogenous leukemia) cells. Description: Cell Titer Glo 2.0 cell viability assay. Format: cell-based. The following applies: Homo sapiens, K562, 72 h, K562 cells, 72 hours, Cell Titer Glo 2.0; read-out: K562 GI50.
Assay [2] deals with MYB mRNA. Description: RT-qPCR splicing assay, MYB canonical junction (CJ) and alternative junction (AJ) mRNA. Type of assay: cell-based, human. Conditions: Homo sapiens; for AC50: increase in MYB alternative junction (AJ) mRNA, read-out: MYB AJ AC50. The gist of the method:
(§1)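 24 h treatment, 37 °C/5% CO2; A673 or K562; 11-pt 3-fold series, top 10 uM final; DMSO ≤0.25%. Cell lysis with DNase I, then 1-step RT-qPCR. Housekeeping normalization: PPIA (A673), GAPDH or GUSB (K562).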
(Real-time PCR tracks product formation cycle by cycle.)

In assay [3] the test system is SMN2 mRNA. Description: RT-qPCR splicing assay, SMN2 canonical junction (CJ) mRNA. Conditions: Homo sapiens; canonical junction qPCR panel, Table 5; read-out: SMN2 (decrease in CJ mRNA levels, IC50). Type of assay: cell-based, human. In short, it runs like this:
(§2)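 Exposure: 24 h, 37 °C, 11-point 3-fold dilutions from 10 uM final, DMSO at or below 0.25%, in A673 or K562 cells. Detection: cell-lysate RT-qPCR of canonical junction mRNA relative to GAPDH, GUSB or PPIA.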

Assay [4] has as its system HTT mRNA. Description: RT-qPCR splicing assay, HTT canonical junction (CJ) and alternative junction (AJ) mRNA. Format: cell-based, human. The following applies: Homo sapiens; for AC50: increase in HTT alternative junction (AJ) mRNA, read-out: HTT AJ AC50. In short, it runs like this: as §1
Assay [5] concerns Target C. Description: RT-qPCR splicing assay panel, Target C canonical junction (CJ) mRNA. Format: cell-based, human. The following applies: Homo sapiens; canonical junction qPCR panel, Table 5; read-out: Target C (decrease in CJ mRNA levels, IC50). The gist of the method:
as §2

[6] abbreviates: canonical junction qPCR panel, Table 5, read-out: MYB (decrease in CJ mRNA levels, IC50).
Setting [7] is: decrease in MYB canonical junction (CJ) mRNA, RT-qPCR, read-out: MYB CJ IC50.
Where [8] appears, read: decrease in HTT canonical junction (CJ) mRNA, RT-qPCR, read-out: HTT CJ IC50.
The mark [9] stands for this setting: canonical junction qPCR panel, Table 5, read-out: HTT (decrease in CJ mRNA levels, IC50).

Among the data in patent publication US20250332173A1, “COMPOUNDS AND METHODS FOR MODULATING NUCLEIC ACID SPLICING” (REMIX THERAPEUTICS INC., priority 2021, published 2025) are GI50, IC50 and AC50 values, retold here.

Read-outs that look alike come from different tables or passages of the source.

On to `Cc1cn2nc(-c3ccc4c(=O)n([C@@H]5CCNC6(CCC6)C5)ncc4n3)cc(C)c2n1` [Compound 1545, 6-[(8R)-5-azaspiro[3.5]nonan-8-yl]-2-(2,8-dimethylimidazo[1,2-b]pyridazin-6-yl)pyrido[2,3-d]pyridazin-5-one], for which the GI50 in assay [1] lay within 0.1 to 1 µM. The IC50 in assay [2] (setting [6]) is 0.1 to 1 µM; in assay [2] (setting [7]), 0.1 to 1 µM; in assay [3], less than 0.1 µM; in assay [4] (setting [8]), less than 0.1 µM; in assay [4] (setting [9]), less than 0.1 µM; in assay [5], 0.1 to 1 µM. Moreover, the AC50 was 0.1 to 1 µM in assay [2] (RT-qPCR) and less than 0.1 µM in assay [4] (RT-qPCR).
For `Cc1cn2nc(-c3ccc4c(=O)n(C5CCNC6(CCC6)C5)ncc4n3)cc(C)c2n1` (stereo not drawn) [Compound 1553], the GI50 in assay [1] lay within 1 to 10 µM. Further, the IC50 in assay [2] (setting [6]) lay in the range of 1 to 10 µM; in assay [2] (setting [7]), 1 to 10 µM; in assay [3], 0.1 to 1 µM; in assay [4] (setting [8]) it was 1 to 10 µM; in assay [4] (setting [9]), 0.1 to 1 µM; in assay [5], 1 to 10 µM. Also, the values for the AC50 in assay [2] (RT-qPCR) and in assay [4] (RT-qPCR) were 1 to 10 µM and 0.1 to 1 µM, respectively.
Regarding `Cn1cc2ccc(-n3cnc4ccc(NC5CCNCC5)cc4c3=O)cc2n1` [Compound 2164], in assay [1], the 50% growth inhibitory concentration (GI50) is more than 10 µM. For the same compound, the IC50 is more than 10 µM in assay [2] (setting [6]); more than 10 µM in assay [2] (setting [7]); more than 10 µM in assay [3]; more than 10 µM in assay [4] (setting [8]); more than 10 µM in assay [4] (setting [9]); 1 to 10 µM in assay [5]. For the same compound, the AC50 in assay [2] (RT-qPCR) and in assay [4] (RT-qPCR) was more than 10 µM in each case.
Turning to `Cc1cc(-c2ccc3ncn(C4CCNCC4)c(=O)c3c2)cc2cn(C)nc12` [Compound 2169], the GI50 in assay [1] is more than 10 µM. The 50% inhibitory concentration (IC50) in assay [2] (setting [6]), in assay [2] (setting [7]), in assay [3], in assay [4] (setting [8]), in assay [4] (setting [9]) and in assay [5] was more than 10 µM each time. Also, the AC50 in assay [2] (RT-qPCR) and in assay [4] (RT-qPCR) was more than 10 µM in each case.
Consider `Cc1cc(-c2ccc3ncn(C4CCN(C)CC4)c(=O)c3c2)cc2cn(C)nc12` [Compound 2170], for which the GI50 in assay [1] was more than 10 µM. Besides, the IC50 in assay [2] (setting [6]), in assay [2] (setting [7]), in assay [3], in assay [4] (setting [8]), in assay [4] (setting [9]) and in assay [5] was more than 10 µM each time. Besides, the AC50 in assay [2] (RT-qPCR) and in assay [4] (RT-qPCR) was more than 10 µM each time.
On to `CN1CCC(Nc2ccc3ncn(-c4ccc5nn(C)cc5c4)c(=O)c3c2)CC1` [Compound 2171], for which the GI50 in assay [1] is more than 10 µM. Further, the IC50 in assay [2] (setting [6]), in assay [2] (setting [7]), in assay [3], in assay [4] (setting [8]), in assay [4] (setting [9]) and in assay [5] was more than 10 µM each time. Further, the AC50 in assay [2] (RT-qPCR) and in assay [4] (RT-qPCR) was more than 10 µM throughout.
In the case of `Cc1cn2cc(-n3cnc4ccc(N5CCNCC5)cc4c3=O)cc(F)c2n1` [Compound 2195], the GI50 in assay [1] was more than 10 µM. For the same compound, the IC50 in assay [2] (setting [6]), in assay [2] (setting [7]), in assay [3], in assay [4] (setting [8]), in assay [4] (setting [9]) and in assay [5] was more than 10 µM each time. Besides, the concentration at half-maximal activity (AC50) in assay [2] (RT-qPCR) and in assay [4] (RT-qPCR) was more than 10 µM each time.
For the compound `Cn1cc2cc(-n3cnc4ccc(N5CCNCC5)cc4c3=O)cc(F)c2n1` [Compound 2196], the GI50 in assay [1] is more than 10 µM. For the same compound, the IC50 in assay [2] (setting [6]), in assay [2] (setting [7]), in assay [3], in assay [4] (setting [8]), in assay [4] (setting [9]) and in assay [5] was more than 10 µM each time. Also, the AC50 in assay [2] (RT-qPCR) and in assay [4] (RT-qPCR) was more than 10 µM in each case.
Turning to `Cc1cn2cc(-n3cnc4ccc(N5CCN(C)CC5)cc4c3=O)cc(F)c2n1` [Compound 2197], the GI50 in assay [1] fell in the range of 1 to 10 µM. Further, the IC50 in assay [2] (setting [6]), in assay [2] (setting [7]), in assay [3], in assay [4] (setting [8]), in assay [4] (setting [9]) and in assay [5] was 1 to 10 µM in each case. The AC50 in assay [2] (RT-qPCR) and in assay [4] (RT-qPCR) was 1 to 10 µM each time.
Regarding `CN(c1ccc2ncn(-c3cc(F)c4nn(C)cc4c3)c(=O)c2c1)C1CCNCC1` [Compound 2198], the GI50 in assay [1] is more than 10 µM. The IC50 in assay [2] (setting [6]), in assay [2] (setting [7]), in assay [3], in assay [4] (setting [8]), in assay [4] (setting [9]) and in assay [5] was more than 10 µM in each case. Also, the AC50 in assay [2] (RT-qPCR) and in assay [4] (RT-qPCR) was more than 10 µM throughout.
`CN1CCC(N(C)c2ccc3ncn(-c4cc(F)c5nn(C)cc5c4)c(=O)c3c2)CC1` [Compound 2199]: in assay [1], the GI50 is more than 10 µM. Also, the IC50 in assay [2] (setting [6]), in assay [2] (setting [7]), in assay [3], in assay [4] (setting [8]), in assay [4] (setting [9]) and in assay [5] was more than 10 µM throughout. Besides, the AC50 in assay [2] (RT-qPCR) and in assay [4] (RT-qPCR) was more than 10 µM throughout.
In the case of `Cc1cn2cc(-n3cnc4ccc(N(C)C5CCNCC5)cc4c3=O)cc(F)c2n1` [Compound 2200], the GI50 in assay [1] is more than 10 µM. The IC50 in assay [2] (setting [6]), in assay [2] (setting [7]), in assay [3], in assay [4] (setting [8]), in assay [4] (setting [9]) and in assay [5] was more than 10 µM in each case. The concentration at half-maximal activity (AC50) in assay [2] (RT-qPCR) and in assay [4] (RT-qPCR) was more than 10 µM each time.
As to `Cc1cn2nc(-n3cnc4ccc(N5CCNCC5)cc4c3=O)cc(C)c2n1` [Compound 2201], the GI50 in assay [1] is more than 10 µM. Moreover, the IC50 in assay [2] (setting [6]), in assay [2] (setting [7]), in assay [3], in assay [4] (setting [8]), in assay [4] (setting [9]) and in assay [5] was more than 10 µM each time. Further, the AC50 in assay [2] (RT-qPCR) and in assay [4] (RT-qPCR) was more than 10 µM in each case.
For `Cc1cn2nc(-n3cnc4ccc(N5CCN(C)CC5)cc4c3=O)cc(C)c2n1` [Compound 2202], the GI50 in assay [1] is 1 to 10 µM. Moreover, the IC50 in assay [2] (setting [6]), in assay [2] (setting [7]), in assay [3], in assay [4] (setting [8]), in assay [4] (setting [9]) and in assay [5] was 1 to 10 µM throughout. Moreover, the AC50 in assay [2] (RT-qPCR) and in assay [4] (RT-qPCR) was 1 to 10 µM throughout.
Take `Cc1cc(-c2ccc3c(=O)[nH]c(N4CCNCC4)nc3c2)cc2cn(C)nc12` [Compound 2211]: in assay [1], the GI50 was more than 10 µM. In addition, the IC50 in assay [2] (setting [6]), in assay [2] (setting [7]), in assay [3], in assay [4] (setting [8]), in assay [4] (setting [9]) and in assay [5] was more than 10 µM in each case. In addition, the AC50 in assay [2] (RT-qPCR) and in assay [4] (RT-qPCR) was more than 10 µM in each case.
As to `Cc1cc(-c2ccc3c(=O)[nH]c(N4CCN(C)CC4)nc3c2)cc2cn(C)nc12` [Compound 2212], the 50% growth inhibitory concentration (GI50) in assay [1] fell in the range of 1 to 10 µM. Also, the IC50 in assay [2] (setting [6]), in assay [2] (setting [7]), in assay [3], in assay [4] (setting [8]), in assay [4] (setting [9]) and in assay [5] was 1 to 10 µM in each case. The AC50 in assay [2] (RT-qPCR) and in assay [4] (RT-qPCR) was 1 to 10 µM throughout.
With `Cc1cc(-c2nc3cc(N4CCNCC4)ccc3c(=O)[nH]2)cc2cn(C)nc12` [Compound 2213], in assay [1], the GI50 was 1 to 10 µM. The IC50 in assay [2] (setting [6]), in assay [2] (setting [7]), in assay [3], in assay [4] (setting [8]), in assay [4] (setting [9]) and in assay [5] was more than 10 µM each time. Besides, the AC50 in assay [2] (RT-qPCR) and in assay [4] (RT-qPCR) was more than 10 µM in each case.

As a reminder, the GI50 is the concentration that inhibits growth by half. Broadly, the IC50 is the point on the concentration scale where inhibition reaches its midpoint. For orientation: AC50 means the concentration giving half of the maximal activity seen.
